Values quoted from earlier work as cited in article PMC4306510 (Bioconjugate Chemistry, 2014).

Details: in 0.1 M aqueous NaOH

## O=C(O)c1ccc2c(c1)C(=O)OC21c2ccc(O)cc2Oc2cc(O)ccc21 [5-carboxy fluorescein]
  quantum yield of the standard: 95%
